Results from patent US10251395B2, “Substituted furano-/thienocycloalkylamino-2-pyrimidine derivatives and use thereof for controlling undesired plant growth” (Bayer CropScience Aktiengesellschaft, priority 2015, dated 2019).

Assays:
logP (HCOOH) = type: physicochemical; details: HCOOH
Excerpt: Table 2 (physicochemical characterization of selected synthesis examples)

Ipomoea purpurea [1] = experiment: Post-emergence herbicidal effect; type: in vivo; details: 320 g/ha, assessed visually after about 3 weeks vs untreated controls
In short: (§1)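 Sow in sandy loam; grow in greenhouse 2–3 wk; spray one-leaf plants with WP or EC suspension/emulsion (600–800 L/ha water, 0.2% wetter); hold ~3 wk under optimal conditions; rate visually vs untreated (0–100%).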

Lolium multiflorum [2] = experiment: Post-emergence herbicidal effect; type: in vivo; details: assessed visually after about 3 weeks vs untreated controls
In short: as §1

Echinochloa crus-galli [3] = experiment: Post-emergence herbicidal effect; type: in vivo; details: assessed visually after about 3 weeks vs untreated controls
In short: as §1

Avena fatua = experiment: Post-emergence herbicidal effect; type: in vivo; details: 320 g/ha, assessed visually after about 3 weeks vs untreated controls
In short: as §1

Viola tricolor [4] = experiment: Post-emergence herbicidal effect; type: in vivo; details: assessed visually after about 3 weeks vs untreated controls
In short: as §1

Polygonum convolvulus [5] = experiment: Post-emergence herbicidal effect; type: in vivo; details: assessed visually after about 3 weeks vs untreated controls
In short: as §1

Stellaria media [6] = experiment: Post-emergence herbicidal effect; type: in vivo; details: assessed visually after about 3 weeks vs untreated controls
In short: as §1

Abutilon theophrasti [7] = experiment: Post-emergence herbicidal effect; type: in vivo; details: 320 g/ha, assessed visually after about 3 weeks vs untreated controls
In short: as §1

Setaria viridis [8] = experiment: Post-emergence herbicidal effect; type: in vivo; details: assessed visually after about 3 weeks vs untreated controls
In short: as §1

Alopecurus myosuroides [9] = experiment: Post-emergence herbicidal effect; type: in vivo; details: assessed visually after about 3 weeks vs untreated controls
In short: as §1

Amaranthus retroflexus [10] = experiment: Post-emergence herbicidal effect; type: in vivo; details: assessed visually after about 3 weeks vs untreated controls
In short: as §1

Veronica persica [11] = experiment: Post-emergence herbicidal effect; type: in vivo; details: assessed visually after about 3 weeks vs untreated controls
In short: as §1

Ipomoea purpurea [12] = experiment: Pre-emergence herbicidal effect; type: in vivo; details: Dosage 320 g/ha, scored visually after 3 weeks
In short: (§2)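 Pre-emergence soil-surface application of compound as WP or EC in water (600 to 800 L/ha, 0.2% wetting agent) to freshly sown, soil-covered seeds in sandy loam. After 3 weeks under greenhouse conditions, percent activity rated by eye versus untreated plants, from 0% (no effect) to 100% (death).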

Matricaria inodora = experiment: Pre-emergence herbicidal effect; type: in vivo; details: scored visually after 3 weeks
In short: as §2

Lolium multiflorum [13] = experiment: Pre-emergence herbicidal effect; type: in vivo; details: scored visually after 3 weeks
In short: as §2

Echinochloa crus-galli [14] = experiment: Pre-emergence herbicidal effect; type: in vivo; details: scored visually after 3 weeks
In short: as §2

Viola tricolor [15] = experiment: Pre-emergence herbicidal effect; type: in vivo; details: scored visually after 3 weeks
In short: as §2

Polygonum convolvulus [16] = experiment: Pre-emergence herbicidal effect; type: in vivo; details: scored visually after 3 weeks
In short: as §2

Stellaria media [17] = experiment: Pre-emergence herbicidal effect; type: in vivo; details: scored visually after 3 weeks
In short: as §2

Abutilon theophrasti [18] = experiment: Pre-emergence herbicidal effect; type: in vivo; details: Dosage 320 g/ha, scored visually after 3 weeks
In short: as §2

Setaria viridis [19] = experiment: Pre-emergence herbicidal effect; type: in vivo; details: scored visually after 3 weeks
In short: as §2

Alopecurus myosuroides [20] = experiment: Pre-emergence herbicidal effect; type: in vivo; details: scored visually after 3 weeks
In short: as §2

Amaranthus retroflexus [21] = experiment: Pre-emergence herbicidal effect; type: in vivo; details: scored visually after 3 weeks
In short: as §2

Veronica persica [22] = experiment: Pre-emergence herbicidal effect; type: in vivo; details: scored visually after 3 weeks
In short: as §2

Nc1nc(N[C@@H]2CCCc3sccc32)ncc1C(F)(F)F [compound 46]
logP (HCOOH) (logP (HCOOH)): oily; logP (HCOOH): 1.91; 1H NMR (CDCl3, 400 MHZ, δ in ppm): 1.80-1.95 (m, | post-emergence efficacy PHBPU (Ipomoea purpurea [1]): 80% | post-emergence efficacy LOLMU (Lolium multiflorum [2]; 80 g/ha): 80% | post-emergence efficacy LOLMU (Lolium multiflorum [2]; 320 g/ha): 100% | post-emergence efficacy ECHCG (Echinochloa crus-galli [3]; 80 g/ha): 100% | post-emergence efficacy ECHCG (Echinochloa crus-galli [3]; 320 g/ha): 100% | post-emergence efficacy AVEFA (Avena fatua): 80% | post-emergence efficacy VIOTR (Viola tricolor [4]; 80 g/ha): 80% | post-emergence efficacy VIOTR (Viola tricolor [4]; 320 g/ha): 100% | post-emergence efficacy POLCO (Polygonum convolvulus [5]; 80 g/ha): 90% | post-emergence efficacy POLCO (Polygonum convolvulus [5]; 320 g/ha): 90% | post-emergence efficacy STEME (Stellaria media [6]; 80 g/ha): 100% | post-emergence efficacy STEME (Stellaria media [6]; 320 g/ha): 100% | post-emergence efficacy ABUTH (Abutilon theophrasti [7]): 40% | post-emergence efficacy SETVI (Setaria viridis [8]; 80 g/ha): 90% | post-emergence efficacy SETVI (Setaria viridis [8]; 320 g/ha): 90% | post-emergence efficacy ALOMY (Alopecurus myosuroides [9]; 80 g/ha): 90% | post-emergence efficacy ALOMY (Alopecurus myosuroides [9]; 320 g/ha): 100% | post-emergence efficacy AMARE (Amaranthus retroflexus [10]; 80 g/ha): 100% | post-emergence efficacy AMARE (Amaranthus retroflexus [10]; 320 g/ha): 100% | post-emergence efficacy VERPE (Veronica persica [11]; 80 g/ha): 80% | post-emergence efficacy VERPE (Veronica persica [11]; 320 g/ha): 100% | PHBPU pre-emergence efficacy (herbicidal activity) (Ipomoea purpurea [12]): 100% | MATIN pre-emergence efficacy (herbicidal activity) (Matricaria inodora; Dosage 80 g/ha): 100% | MATIN pre-emergence efficacy (herbicidal activity) (Matricaria inodora; Dosage 320 g/ha): 100% | LOLMU pre-emergence efficacy (herbicidal activity) (Lolium multiflorum [13]; Dosage 80 g/ha): 80% | LOLMU pre-emergence efficacy (herbicidal activity) (Lolium multiflorum [13]; Dosage 320 g/ha): 100% | ECHCG pre-emergence efficacy (herbicidal activity) (Echinochloa crus-galli [14]; Dosage 80 g/ha): 100% | ECHCG pre-emergence efficacy (herbicidal activity) (Echinochloa crus-galli [14]; Dosage 320 g/ha): 100% | VIOTR pre-emergence efficacy (herbicidal activity) (Viola tricolor [15]; Dosage 80 g/ha): 100% | VIOTR pre-emergence efficacy (herbicidal activity) (Viola tricolor [15]; Dosage 320 g/ha): 100% | POLCO pre-emergence efficacy (herbicidal activity) (Polygonum convolvulus [16]; Dosage 80 g/ha): 90% | POLCO pre-emergence efficacy (herbicidal activity) (Polygonum convolvulus [16]; Dosage 320 g/ha): 100% | STEME pre-emergence efficacy (herbicidal activity) (Stellaria media [17]; Dosage 80 g/ha): 100% | STEME pre-emergence efficacy (herbicidal activity) (Stellaria media [17]; Dosage 320 g/ha): 100% | ABUTH pre-emergence efficacy (herbicidal activity) (Abutilon theophrasti [18]): 80% | SETVI pre-emergence efficacy (herbicidal activity) (Setaria viridis [19]; Dosage 80 g/ha): 100% | SETVI pre-emergence efficacy (herbicidal activity) (Setaria viridis [19]; Dosage 320 g/ha): 100% | ALOMY pre-emergence efficacy (herbicidal activity) (Alopecurus myosuroides [20]; Dosage 80 g/ha): 100% | ALOMY pre-emergence efficacy (herbicidal activity) (Alopecurus myosuroides [20]; Dosage 320 g/ha): 100% | AMARE pre-emergence efficacy (herbicidal activity) (Amaranthus retroflexus [21]; Dosage 80 g/ha): 100% | AMARE pre-emergence efficacy (herbicidal activity) (Amaranthus retroflexus [21]; Dosage 320 g/ha): 100% | VERPE pre-emergence efficacy (herbicidal activity) (Veronica persica [22]; Dosage 80 g/ha): 100% | VERPE pre-emergence efficacy (herbicidal activity) (Veronica persica [22]; Dosage 320 g/ha): 100%
